Assay results taken from ChEMBL document CHEMBL3102744, “Inhibition of tyrosinase activity by polyphenol compounds from Flemingia philippinensis roots” (Bioorg Med Chem, 2014).
Activity calls are given as the source filed them. No cut-off for these calls is given here.

Columns and labels:
[1] = target: T1, Tyrosinase (Agaricus bisporus, UniProt O42713); assay: Inhibition of mushroom tyrosinase using L-DOPA as substrate preincubated for 10 mins with substrate followed by enzyme addition measured after 15 mins by spectrophotometry
T1 sequence (O42713 whole entry): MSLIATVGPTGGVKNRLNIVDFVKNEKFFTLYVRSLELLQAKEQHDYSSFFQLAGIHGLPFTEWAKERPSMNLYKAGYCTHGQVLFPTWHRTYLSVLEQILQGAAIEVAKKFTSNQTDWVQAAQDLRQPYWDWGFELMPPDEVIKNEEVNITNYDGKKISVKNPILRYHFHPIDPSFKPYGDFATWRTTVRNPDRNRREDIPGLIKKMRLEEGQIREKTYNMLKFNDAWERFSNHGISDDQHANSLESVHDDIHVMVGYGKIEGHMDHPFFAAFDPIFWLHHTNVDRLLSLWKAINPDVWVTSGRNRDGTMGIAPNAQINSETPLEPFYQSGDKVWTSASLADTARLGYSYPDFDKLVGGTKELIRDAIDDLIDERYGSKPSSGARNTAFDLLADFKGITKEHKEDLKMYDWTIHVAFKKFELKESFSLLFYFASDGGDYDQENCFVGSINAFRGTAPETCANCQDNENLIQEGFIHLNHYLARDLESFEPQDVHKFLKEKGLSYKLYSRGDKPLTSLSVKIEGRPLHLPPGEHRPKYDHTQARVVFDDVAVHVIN

[2] = target: T1, Tyrosinase; assay: Competitive inhibition of mushroom tyrosinase using L-tyrosine as substrate preincubated for 10 mins with substrate followed by enzyme addition measured after 15 mins by Dixon plot analysis
[3] = target: T1, Tyrosinase; assay: Competitive inhibition of mushroom tyrosinase using L-DOPA as substrate preincubated for 10 mins with substrate followed by enzyme addition measured after 15 mins by Dixon plot analysis
[4] = target: T1, Tyrosinase; assay: (§1) Inhibition of mushroom tyrosinase using L-tyrosine as substrate preincubated for 10 mins with substrate followed by enzyme addition measured after 15 mins by spectrophotometry
[5] = target: T2, Tyrosinase (Agaricus bisporus) (UniProt O42713); assay: as §1
T2 sequence (whole entry): T1 sequence (O42713 whole entry)

[6] = target: T2, Tyrosinase (Agaricus bisporus); assay: Ratio of kojic acid IC50 to compound IC50 for mushroom tyrosinase using L-tyrosine as substrate
[7] = target: T2, Tyrosinase (Agaricus bisporus); assay: Inhibition of mushroom tyrosinase using L-tyrosine as substrate at 0.78 uM by spectrophotometry; conditions: TDE = time-dependent effect
[8] = target: T2, Tyrosinase (Agaricus bisporus); assay: Reversible inhibition of mushroom tyrosinase at 0.781 to 3.125 uM

Row | IC50 [1] [µM] | Ki [2] [µM] | Ki [3] [µM] | IC50 [4] [µM] | inhibition [5] | Ratio IC50 [6] | inhibition [7] | inhibition [8] | SMILES
1 | 20.4 | 2.07 | 8.15 | 4.96 | Dose-dependent effect | – | – | – | COc1ccc([C@@H]2CC(=O)c3c(O)c4c(c(CC=C(C)C)c3O2)OC(C)(C)C=C4)c(O)c1 [KHONKLONGINOL H]
2 | 84.1 | 5.33 | 36.3 | 11.2 | Dose-dependent effect | – | – | – | CC(C)=CCc1c2c(c(O)c3c1O[C@H](c1ccc(O)cc1)CC3=O)C=CC(C)(C)O2 [LUPINIFOLIN]
3 | 19.5 | 0.48 | 8.16 | 1.01 | Dose-dependent effect | 10 | tde | Active | COc1ccc(CCC(=O)c2c(O)c(CC=C(C)C)c3c(c2O)CC(O)C(C)(C)O3)cc1 (centres undefined)
4 | 32.6 | 9.36 | 13.3 | 18.4 | Dose-dependent effect | – | – | – | COc1ccc(CCC(=O)c2ccc3c(c2O)CC(O)C(C)(C)O3)cc1 (centres undefined)
5 | 5.22 | 0.63 | 2.74 | 1.28 | Dose-dependent effect | 10 | – | – | COc1ccc(CCC(=O)c2c(O)c3c(c4c2OC(C(C)(C)O)C4)OC(C)(C)C=C3)cc1 (centres undefined)
6 | 7.48 | 0.86 | 3.77 | 1.79 | Dose-dependent effect | – | – | – | CC(C)=CCc1c2c(c(O)c3c1O[C@H](c1ccc(O)cc1O)CC3=O)C=CC(C)(C)O2 [FLEMICHIN D]
